From ChEMBL document CHEMBL3885861, “Open TG-GATES”

Species on record: Rattus norvegicus
Assay: Open TG-GATES - Regimen: Daily Repeat
Format: toxicity, organism-based, Sprague-Dawley
Set-up: regimen Daily Repeat, gender Male, age 6 weeks
Conditions: in vivo, po, 0 mg/kg, route gavage, dose level Control; for APTT / Bas / Eos / Fbg / Ht / Lym / MCHC / MCV / Mono / PT / Plat / RBC / Ret: tissue Blood; for KIDNEY_L / KIDNEY_R / KIDNEY_TOTAL: tissue Kidney; for AST / CRE / GLC / IP / K / LDH / RALB / TBIL / TC / TP / gamma-GTP: tissue Plasma

CN(C)CCCN1c2ccccc2CCc2ccccc21 [IMIPRAMINE]
TERMINAL_BW (72 h, time 3 day): 230.9 g | APTT (72 h, time 3 day): 16.3 s | Bas (72 h, time 3 day): 0% | Eos (72 h, time 3 day): 1% | Fbg (72 h, time 3 day): 278.8 mg/dL | Ht (72 h, time 3 day): 40.6% | Lym (72 h, time 3 day): 77.8% | MCHC (72 h, time 3 day): 32.6% | MCV (72 h, time 3 day): 63.2 fL | Mono (72 h, time 3 day): 3% | PT (72 h, time 3 day): 15.8 s | Plat (72 h, time 3 day): 111.4 x10_4/uL | RBC (72 h, time 3 day): 642.2 x10_4/ul | Ret (72 h, time 3 day): 6.7% | KIDNEY_L (72 h, time 3 day): 1 g | KIDNEY_R (72 h, time 3 day): 1 g | KIDNEY_TOTAL (72 h, time 3 day): 2 g | AST (72 h, time 3 day): 68.2 IU/L | CRE (72 h, time 3 day): 0.2 mg/dL | GLC (72 h, time 3 day): 180.6 mg/dL | IP (72 h, time 3 day): 7.7 mg/dL | K (72 h, time 3 day): 4.2 meq/L | LDH (72 h, time 3 day): 64.8 IU/L | RALB (72 h, time 3 day): 2.6 g/dL | TBIL (72 h, time 3 day): 0.056 mg/dL | TC (72 h, time 3 day): 79.2 mg/dL | TP (72 h, time 3 day): 5.7 g/dL | gamma-GTP (72 h, time 3 day): 1 IU/L | TERMINAL_BW ([…], time 7 day): 270.9 g | TERMINAL_BW ([…], time 14 day): 328.3 g | TERMINAL_BW ([…], time 28 day): 419.8 g | APTT ([…], time 7 day): 15.4 s | Bas ([…], time 7 day): 0.2% | Eos ([…], time 7 day): 1% | Fbg ([…], time 7 day): 292 mg/dL | Ht ([…], time 7 day): 41.2% | Lym ([…], time 7 day): 77.4% | MCHC ([…], time 7 day): 32.9% | MCV ([…], time 7 day): 63.5 fL | Mono ([…], time 7 day): 2.4% | PT ([…], time 7 day): 15.4 s | Plat ([…], time 7 day): 123.5 x10_4/uL | RBC ([…], time 7 day): 649.4 x10_4/ul | Ret ([…], time 7 day): 6.1% | APTT ([…], time 14 day): 16 s | Bas ([…], time 14 day): 0.4% | Eos ([…], time 14 day): 0.8% | Fbg ([…], time 14 day): 279.4 mg/dL | Ht ([…], time 14 day): 42.1% | Lym ([…], time 14 day): 79.2% | MCHC ([…], time 14 day): 33.2% | MCV ([…], time 14 day): 60.6 fL | Mono ([…], time 14 day): 1.8% | PT ([…], time 14 day): 15.6 s | Plat ([…], time 14 day): 119.8 x10_4/uL | RBC ([…], time 14 day): 695.6 x10_4/ul | Ret ([…], time 14 day): 4.6% | APTT ([…], time 28 day): 15.9 s | Bas ([…], time 28 day): 0% | Eos ([…], time 28 day): 1.2% | Fbg ([…], time 28 day): 294.2 mg/dL | Ht ([…], time 28 day): 44.1% | Lym ([…], time 28 day): 80.6% | MCHC ([…], time 28 day): 33.5% | MCV ([…], time 28 day): 57.9 fL | Mono ([…], time 28 day): 2.2% | PT ([…], time 28 day): 15.4 s | Plat ([…], time 28 day): 94.4 x10_4/uL | RBC ([…], time 28 day): 761.4 x10_4/ul | Ret ([…], time 28 day): 2.4% | KIDNEY_L ([…], time 7 day): 1.1 g | KIDNEY_R ([…], time 7 day): 1.1 g | KIDNEY_TOTAL ([…], time 7 day): 2.2 g | KIDNEY_L ([…], time 14 day): 1.3 g | KIDNEY_R ([…], time 14 day): 1.2 g | KIDNEY_TOTAL ([…], time 14 day): 2.5 g | KIDNEY_L ([…], time 28 day): 1.4 g | KIDNEY_R ([…], time 28 day): 1.4 g | KIDNEY_TOTAL ([…], time 28 day): 2.9 g | AST ([…], time 7 day): 66.2 IU/L | CRE ([…], time 7 day): 0.2 mg/dL | GLC ([…], time 7 day): 185.6 mg/dL | IP ([…], time 7 day): 7.7 mg/dL | K ([…], time 7 day): 4 meq/L | LDH ([…], time 7 day): 114 IU/L | RALB ([…], time 7 day): 2.6 g/dL | TBIL ([…], time 7 day): 0.056 mg/dL | TC ([…], time 7 day): 81.4 mg/dL | TP ([…], time 7 day): 5.9 g/dL | gamma-GTP ([…], time 7 day): 0.4 IU/L | AST ([…], time 14 day): 63.6 IU/L | CRE ([…], time 14 day): 0.2 mg/dL | GLC ([…], time 14 day): 183.8 mg/dL | IP ([…], time 14 day): 6.8 mg/dL | K ([…], time 14 day): 4.2 meq/L | LDH ([…], time 14 day): 97.4 IU/L | RALB ([…], time 14 day): 2.6 g/dL | TBIL ([…], time 14 day): 0.05 mg/dL | TC ([…], time 14 day): 72.6 mg/dL | TP ([…], time 14 day): 5.9 g/dL | gamma-GTP ([…], time 14 day): 1 IU/L | AST ([…], time 28 day): 55.6 IU/L | CRE ([…], time 28 day): 0.2 mg/dL | GLC ([…], time 28 day): 188.8 mg/dL | IP ([…], time 28 day): 6.9 mg/dL | K ([…], time 28 day): 3.9 meq/L | LDH ([…], time 28 day): 43.4 IU/L | RALB ([…], time 28 day): 2.8 g/dL | TBIL ([…], time 28 day): 0.056 mg/dL | TC ([…], time 28 day): 68 mg/dL | TP ([…], time 28 day): 6.3 g/dL | gamma-GTP ([…], time 28 day): 0.6 IU/L
